Measurements reported in PubChem BioAssay AID1845201 (Molecular Pharmacology Branch, DTP, NCI, 2023).

Test system: COR L88 complex tumor spheroid viability
Test: Anticancer human tumor COR L88 cell line growth inhibition;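 note: compound exposure lasted 7 days before viability readout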;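 for viability, T/C: percent of DMSO vehicle-treated spheroids = 100%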
Conditions: for IC50: curve of first compound; for viability, T/C: stronger effect = lower value
How it was run: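 Complex tumor spheroids combined malignant cells with endothelial cells and mesenchymal stem cells. DNA-damaging drugs and DNA repair inhibitors were tested alone and in combination, at half-log dilutions down from clinical Cmax (top 10 microM if Cmax unknown), 0.25% DMSO final.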

[1] = second compound 0.003 µM, first compound 0.0316 µM
[2] = second compound 0.003 µM, first compound 0.1 µM
[3] = second compound 0.003 µM, first compound 0.316 µM
[4] = second compound 0.003 µM, first compound 1 µM
[5] = second compound 0.003 µM, first compound 3.16 µM
[6] = second compound 0.003 µM, first compound 10 µM
[7] = second compound 0.00949 µM, first compound 0.0316 µM
[8] = second compound 0.00949 µM, first compound 0.1 µM
[9] = second compound 0.00949 µM, first compound 0.316 µM
[10] = second compound 0.00949 µM, first compound 1 µM
[11] = second compound 0.00949 µM, first compound 3.16 µM
[12] = second compound 0.00949 µM, first compound 10 µM
[13] = second compound 0.03 µM, first compound 0.0316 µM
[14] = second compound 0.03 µM, first compound 0.1 µM
[15] = second compound 0.03 µM, first compound 0.316 µM
[16] = second compound 0.03 µM, first compound 1 µM
[17] = second compound 0.03 µM, first compound 3.16 µM
[18] = second compound 0.03 µM, first compound 10 µM
[19] = second compound 0.0949 µM, first compound 0.0316 µM
[20] = second compound 0.0949 µM, first compound 0.1 µM
[21] = second compound 0.0949 µM, first compound 0.316 µM
[22] = second compound 0.0949 µM, first compound 1 µM
[23] = second compound 0.0949 µM, first compound 3.16 µM
[24] = second compound 0.0949 µM, first compound 10 µM
[25] = second compound 0.3 µM, first compound 0.0316 µM
[26] = second compound 0.3 µM, first compound 0.1 µM
[27] = second compound 0.3 µM, first compound 0.316 µM
[28] = second compound 0.3 µM, first compound 1 µM
[29] = second compound 0.3 µM, first compound 3.16 µM
[30] = second compound 0.3 µM, first compound 10 µM
[31] = second compound 1 µM, first compound 0.0949 µM
[32] = second compound 1 µM, first compound 0.3 µM
[33] = second compound 1 µM, first compound 0.949 µM
[34] = second compound 1 µM, first compound 3 µM
[35] = second compound 3.16 µM, first compound 0.0949 µM
[36] = second compound 3.16 µM, first compound 0.3 µM
[37] = second compound 3.16 µM, first compound 0.949 µM
[38] = second compound 3.16 µM, first compound 3 µM
[39] = second compound 10 µM, first compound 0.0949 µM
[40] = second compound 10 µM, first compound 0.3 µM
[41] = second compound 10 µM, first compound 0.949 µM
[42] = second compound 10 µM, first compound 3 µM
[43] = second compound 31.6 µM, first compound 0.0949 µM
[44] = second compound 31.6 µM, first compound 0.3 µM
[45] = second compound 31.6 µM, first compound 0.949 µM
[46] = second compound 31.6 µM, first compound 3 µM
[47] = second compound 100 µM, first compound 0.0949 µM
[48] = second compound 100 µM, first compound 0.3 µM
[49] = second compound 100 µM, first compound 0.949 µM
[50] = second compound 100 µM, first compound 3 µM

## CC(C)n1c(=O)n(C)c2cnc3cc(F)c(-c4ccc(OCCCN5CCCCC5)nc4)cc3c21 + CC[C@@]1(O)C(=O)OCc2c1cc1n(c2=O)Cc2cc3c(CN(C)C)c(O)ccc3nc2-1
Second compound 0.003 µM
  IC50: 5.16 µM
Second compound 0.00949 µM
  IC50: 0.157 µM
Second compound 0.03 µM
  IC50: < 0.0316 µM
Second compound 0.0949 µM
  IC50: < 0.0316 µM
Second compound 0.3 µM
  IC50: < 0.0316 µM
[1]
  viability, T/C: 85%
[2]
  viability, T/C: 94.2%
[3]
  viability, T/C: 76.9%
[4]
  viability, T/C: 80.6%
[5]
  viability, T/C: 68.2%
[6]
  viability, T/C: 26.9%
[7]
  viability, T/C: 51.9%
[8]
  viability, T/C: 52.9%
[9]
  viability, T/C: 48.2%
[10]
  viability, T/C: 40.6%
[11]
  viability, T/C: 33%
[12]
  viability, T/C: 14.1%
[13]
  viability, T/C: 46.5%
[14]
  viability, T/C: 42.1%
[15]
  viability, T/C: 37.3%
[16]
  viability, T/C: 29.7%
[17]
  viability, T/C: 30.6%
[18]
  viability, T/C: 14.2%
[19]
  viability, T/C: 38.6%
[20]
  viability, T/C: 36.4%
[21]
  viability, T/C: 30.2%
[22]
  viability, T/C: 28.6%
[23]
  viability, T/C: 27.2%
[24]
  viability, T/C: 15.3%
[25]
  viability, T/C: 44.3%
[26]
  viability, T/C: 42.7%
[27]
  viability, T/C: 39%
[28]
  viability, T/C: 34.5%
[29]
  viability, T/C: 27.7%
[30]
  viability, T/C: 14.7%

## O=C(c1cc(Cc2n[nH]c(=O)c3ccccc23)ccc1F)N1CCN(C(=O)C2CC2)CC1 + Cn1nnc2c(C(N)=O)ncn2c1=O
Second compound 1 µM
  IC50: 21.3 µM
Second compound 3.16 µM
  IC50: 20.9 µM
Second compound 10 µM
  IC50: 9.36 µM
Second compound 31.6 µM
  IC50: 3.7 µM
Second compound 100 µM
  IC50: 0.263 µM
[31]
  viability, T/C: 92.8%
[32]
  viability, T/C: 92.8%
[33]
  viability, T/C: 97.3%
[34]
  viability, T/C: 78.4%
Second compound 1 µM, first compound 9.49 µM
  viability, T/C: 61%
Second compound 1 µM, first compound 30 µM
  viability, T/C: 45.4%
[35]
  viability, T/C: 102%
[36]
  viability, T/C: 93.6%
[37]
  viability, T/C: 91.8%
[38]
  viability, T/C: 86.5%
Second compound 3.16 µM, first compound 9.49 µM
  viability, T/C: 54.7%
Second compound 3.16 µM, first compound 30 µM
  viability, T/C: 47.9%
[39]
  viability, T/C: 72.6%
[40]
  viability, T/C: 83.1%
[41]
  viability, T/C: 75.5%
[42]
  viability, T/C: 64.2%
Second compound 10 µM, first compound 9.49 µM
  viability, T/C: 50.6%
Second compound 10 µM, first compound 30 µM
  viability, T/C: 45.1%
[43]
  viability, T/C: 61.8%
[44]
  viability, T/C: 58.1%
[45]
  viability, T/C: 57.5%
[46]
  viability, T/C: 49.5%
Second compound 31.6 µM, first compound 9.49 µM
  viability, T/C: 45.5%
Second compound 31.6 µM, first compound 30 µM
  viability, T/C: 41.2%
[47]
  viability, T/C: 53.9%
[48]
  viability, T/C: 48.4%
[49]
  viability, T/C: 46.5%
[50]
  viability, T/C: 43.7%
Second compound 100 µM, first compound 9.49 µM
  viability, T/C: 39%
Second compound 100 µM, first compound 30 µM
  viability, T/C: 37%

## [2H]c1nc(C)nc([2H])c1-c1cc(NC[C@@H](C)c2cccc3c(C(=O)NC)ccnc23)ncn1 + CC[C@@]1(O)C(=O)OCc2c1cc1n(c2=O)Cc2cc3c(CN(C)C)c(O)ccc3nc2-1
Second compound 0.003 µM
  IC50: > 10 µM
Second compound 0.00949 µM
  IC50: > 10 µM
Second compound 0.03 µM
  IC50: 2 µM
Second compound 0.0949 µM
  IC50: 1.55 µM
Second compound 0.3 µM
  IC50: 8.58 µM
[1]
  viability, T/C: 99.2%
[2]
  viability, T/C: 98.1%
[3]
  viability, T/C: 103%
[4]
  viability, T/C: 99%
[5]
  viability, T/C: 101%
[6]
  viability, T/C: 100%
[7]
  viability, T/C: 68.6%
[8]
  viability, T/C: 72.5%
[9]
  viability, T/C: 83.1%
[10]
  viability, T/C: 87.7%
[11]
  viability, T/C: 85%
[12]
  viability, T/C: 85.1%
[13]
  viability, T/C: 56.6%
[14]
  viability, T/C: 58.3%
[15]
  viability, T/C: 52.1%
[16]
  viability, T/C: 55.2%
[17]
  viability, T/C: 47.3%
[18]
  viability, T/C: 38.9%
[19]
  viability, T/C: 58.3%
[20]
  viability, T/C: 59.8%
[21]
  viability, T/C: 54.7%
[22]
  viability, T/C: 62.5%
[23]
  viability, T/C: 34.4%
[24]
  viability, T/C: 37%
[25]
  viability, T/C: 55.9%
[26]
  viability, T/C: 55.4%
[27]
  viability, T/C: 57.1%
[28]
  viability, T/C: 57.3%
[29]
  viability, T/C: 57.1%
[30]
  viability, T/C: 42.4%

## CNCc1ccc(-c2cc(-c3nc(-c4ccc(S(=O)(=O)C(C)C)cc4)cnc3N)on2)cc1 + Cn1nnc2c(C(N)=O)ncn2c1=O
Second compound 1 µM
  IC50: 0.618 µM
Second compound 3.16 µM
  IC50: 0.639 µM
Second compound 10 µM
  IC50: 0.463 µM
Second compound 31.6 µM
  IC50: 0.448 µM
Second compound 100 µM
  IC50: 0.386 µM
Second compound 1 µM, first compound 0.00949 µM
  viability, T/C: 99.9%
Second compound 1 µM, first compound 0.03 µM
  viability, T/C: 97.6%
[31]
  viability, T/C: 102%
[32]
  viability, T/C: 72.1%
[33]
  viability, T/C: 36.8%
[34]
  viability, T/C: 12.9%
Second compound 3.16 µM, first compound 0.00949 µM
  viability, T/C: 92.9%
Second compound 3.16 µM, first compound 0.03 µM
  viability, T/C: 107%
[35]
  viability, T/C: 112%
[36]
  viability, T/C: 81.3%
[37]
  viability, T/C: 33.6%
[38]
  viability, T/C: 11%
Second compound 10 µM, first compound 0.00949 µM
  viability, T/C: 87.4%
Second compound 10 µM, first compound 0.03 µM
  viability, T/C: 99.7%
[39]
  viability, T/C: 95.3%
[40]
  viability, T/C: 63.8%
[41]
  viability, T/C: 25.9%
[42]
  viability, T/C: 10.8%
Second compound 31.6 µM, first compound 0.00949 µM
  viability, T/C: 80.7%
Second compound 31.6 µM, first compound 0.03 µM
  viability, T/C: 90.9%
[43]
  viability, T/C: 101%
[44]
  viability, T/C: 62.5%
[45]
  viability, T/C: 25.1%
[46]
  viability, T/C: 11.2%
Second compound 100 µM, first compound 0.00949 µM
  viability, T/C: 78.3%
Second compound 100 µM, first compound 0.03 µM
  viability, T/C: 81%
[47]
  viability, T/C: 76.5%
[48]
  viability, T/C: 58%
[49]
  viability, T/C: 21.3%
[50]
  viability, T/C: 9.59%
